# In patent publication US20170367588A1, “METHODS USING FACIAL TEMPERATURE TO EVALUATE POST-INGESTIVE IMPACT OF FOOD INGREDIENTS ON FAT OXIDATION” (NESTEC S.A., priority 2014, published 2017):
# “Also recorded” adds a separate entry of the source.
# Experiments:
# [1] = clinical trial, facial thermography with infrared camera; assay type: in vivo, human; design: AUC Difference of the temperature vs placebo: unit not given beside the values; details: for nose temperature after intake: Zone-2 (nose), over the 15 minutes post-ingestion, FIG. 4A; for cheek temperature after intake: Zone-12 (cheeks), immediately after intake, FIG. 4B
# Protocol: Participants. Participants were healthy men with 19<BMI<25 and 60 kg minimum body weight. The age was in the 20-50 range. Participants had to like spicy food but are moderate spicy food eaters. Screening of candidates was done through a questionnaire on spicy food habits. The clinical trial we approved by a competent ethics committee (Commission cantonale (VD) d'Etique pour recherché sur l'Etre Humain) and participants gave their written informed consent. This trial was conducted according to the principles and rules laid down in the Declaration of Helsinki and its subsequent amendments.
# The presented study was a double-blinded, balanced, randomized, cross-over, placebo-controlled clinical trial. For each measure, the subjects had tested after an over-night fast. They had been requested to use their car or public transportation to come to the investigation site in order to keep morning physical activity level as low as possible. Moreover, consumption of caffeine was not permitted after the lunch meal (12 p.m.) before each session, and participants had been asked to refrain their spice consumption for two days prior each session. Each sample was evaluated in two different sessions A and B, with the same design but different recordings (FIG. 1A).
# Each session started at 8:00 a.m. with a 30 minutes rest period and measurement preparation. During all the testing sessions, subjects were seated comfortably. Room temperature was in the 20 to 22° C. range. Subjects were instructed to remain quiet and still, but they were allowed to watch TV. Parameters were recorded 30 minutes before and 90 minutes after ingestion of each sample (FIG. 1A).
# Treatment. All active TRP agonists were in 200 ml liquid tomato juice (Granini) at room temperature and served with a slice of bread. Placebo was 200 ml Commercial tomato juice. Active ingredients per 200 ml were 1 mg of Capsaicin (Spectrum chemicals), 0.2 ml of Givaudan cooling flavor (QB-113-979-5) or 70 mg of Cinnamaldehyde (Sigma). All ingredients were in vitro validated in cell lines expressing hTRPV1, hTRPA1 or hTRPM8 according to the calcium imaging method described in Riera et al, 2009 (FIG. 2).
# Facial thermography. In this study, infrared thermal imaging of the face has been used as an exploratory, non-invasive recording method of sympathetic nervous system activity. Using a FLIR A325 infrared camera (FLIR Systems, Inc) subjects were continuously recorded at a distance of ˜1 m. They were comfortably installed in a chair with the head maintained fixed on a chin-rest support, to facilitate the further image analysis. Room temperature was in the 20 to 22° C. range. The camera FLIR A325 is equipped with a 25° lens, resolution is 320×240 pixels, and sensitivity is 0.05° C. and accuracy±2° C. The recording was performed by acquiring 1 image/second. Thermographic imaging software, FLIR ResearchIR is used to acquire images.
# Facial thermography data were extracted using in-home algorithms developed within the Matlab framework (The Mathworks Inc., Natick, Mass., USA). First, a graphical user interface (GUI) was created to help defining manually a temperature threshold highlighting primarily subject's faces. An alignment of the face was then computed and twelve regions of interest (ROIs) drawn manually using the GUI (FIG. 1B). Face alignment/orientation correction was computed image by image by first creating a binary mask using the manually set temperature threshold. Holes in the binary mask were filled and the region with the greatest continuous area was selected. The selected region centroid was determined using the built-in Matlab region properties tool (regionprops). With the same tool, an ellipse was fitted within the region to obtain the angular orientation of the ellipse's major axis compared to the x-axis. […]
# mouse variant of TRPA1 = mouse variant of TRPA1 (Mus musculus, UniProt Q8BLA8); details: mouse variant of TRPA1, based on the literature; cited from earlier work
# hTRPA1 = target: T1, hTRPA1 (Homo sapiens, UniProt O75762); assay: in vitro validation in cell lines expressing hTRPA1, calcium imaging; assay type: cell-based; details: human TRPA1, in vitro, data not shown
# T1 construct: expressed in transfected cells
# T1 sequence (O75762 whole entry): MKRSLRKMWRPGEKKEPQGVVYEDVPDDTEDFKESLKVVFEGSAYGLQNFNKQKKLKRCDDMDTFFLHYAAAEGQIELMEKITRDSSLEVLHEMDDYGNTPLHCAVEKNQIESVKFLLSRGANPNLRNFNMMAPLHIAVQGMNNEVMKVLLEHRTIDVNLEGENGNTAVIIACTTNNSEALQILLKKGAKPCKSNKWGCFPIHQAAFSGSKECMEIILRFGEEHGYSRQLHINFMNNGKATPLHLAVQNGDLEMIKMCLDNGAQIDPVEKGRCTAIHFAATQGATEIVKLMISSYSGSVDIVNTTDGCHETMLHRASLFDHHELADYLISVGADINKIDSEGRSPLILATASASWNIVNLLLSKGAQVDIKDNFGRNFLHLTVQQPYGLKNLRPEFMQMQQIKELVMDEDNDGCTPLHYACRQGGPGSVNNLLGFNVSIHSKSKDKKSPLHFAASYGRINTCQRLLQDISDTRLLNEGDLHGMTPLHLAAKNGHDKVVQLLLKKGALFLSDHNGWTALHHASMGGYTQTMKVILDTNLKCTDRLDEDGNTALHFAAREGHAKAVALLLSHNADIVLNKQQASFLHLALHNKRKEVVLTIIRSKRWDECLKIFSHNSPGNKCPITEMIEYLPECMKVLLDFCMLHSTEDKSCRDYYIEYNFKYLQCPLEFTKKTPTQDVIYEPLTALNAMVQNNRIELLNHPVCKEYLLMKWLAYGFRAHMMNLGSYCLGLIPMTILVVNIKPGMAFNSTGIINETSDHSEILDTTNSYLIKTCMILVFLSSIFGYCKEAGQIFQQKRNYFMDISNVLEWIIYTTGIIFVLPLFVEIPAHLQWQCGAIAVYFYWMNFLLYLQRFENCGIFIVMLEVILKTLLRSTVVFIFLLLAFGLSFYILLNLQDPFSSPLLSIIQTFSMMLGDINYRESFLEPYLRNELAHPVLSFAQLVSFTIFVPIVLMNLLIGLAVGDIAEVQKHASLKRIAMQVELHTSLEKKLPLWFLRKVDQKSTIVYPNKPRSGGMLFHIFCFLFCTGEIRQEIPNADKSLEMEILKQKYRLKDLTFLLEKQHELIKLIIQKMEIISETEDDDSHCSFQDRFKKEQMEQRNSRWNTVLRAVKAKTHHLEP
# Protocol: Treatment. All active TRP agonists were in 200 ml liquid tomato juice ([…]) at room temperature and served with a slice of bread. Placebo was 200 ml Commercial tomato juice. Active ingredients per 200 ml were 1 mg of Capsaicin (Spectrum chemicals), 0.2 ml of Givaudan cooling flavor (QB-113-979-5) or 70 mg of Cinnamaldehyde (Sigma). All ingredients were in vitro validated in cell lines expressing hTRPV1, hTRPA1 or hTRPM8 according to the calcium imaging method described in Riera et al, 2009 (FIG. 2). The objective of this trial was to assess if the stimulation of TRPA1 and TRPM8 pathways could be as efficient at impacting the energy balance as is the simulation of TRPV1 by capsaicin or capsiate. Based on the literature, we selected the most representative TRPA1 agonist: cinnamaldehyde activating specifically the mouse variant of TRPA1 with an EC50 of 60 μM, its specificity on the human form of the receptor has been confirmed in vitro (data not shown). In order to identify an efficient and specific agonist of hTRPM8, different ingredients with cooling properties have been evaluated in vitro. A cooling flavor (CF) provided by Givaudan, activating specifically hTRPM8 with an EC50 of 0.07% (FIG. 2) has been selected. As a positive control, capsaicin was evaluated in parallel to cinnamaldehyde and CF in this trial.
# [2] = clinical trial, indirect calorimetry (energy expenditure and substrate oxidation); assay type: in vivo, human; details: for energy expenditure compared to placebo / fat oxidation compared to placebo: healthy men, time standardized AUC after ingestion; for energy expenditure compared to placebo: single ingestion in 200 ml tomato juice (1 mg capsaicin, 70 mg cinnamaldehyde, 200 μl CF); for fat oxidation compared to placebo: single ingestion in 200 ml tomato juice; for higher post-prandial fat oxidation compared to placebo, magnitude: over the period of the experiment (90 min), capsaicin 1 mg/200 ml, cinnamaldehyde 70 mg/200 ml
# Protocol: Participants. Participants were healthy men with 19<BMI<25 and 60 kg minimum body weight. The age was in the 20-50 range. Participants had to like spicy food but are moderate spicy food eaters. Screening of candidates was done through a questionnaire on spicy food habits. The clinical trial we approved by a competent ethics committee (Commission cantonale (VD) d'Etique pour recherché sur l'Etre Humain) and participants gave their written informed consent. This trial was conducted according to the principles and rules laid down in the Declaration of Helsinki and its subsequent amendments. The presented study was a double-blinded, balanced, randomized, cross-over, placebo-controlled clinical trial. For each measure, the subjects had tested after an over-night fast. They had been requested to use their car or public transportation to come to the investigation site in order to keep morning physical activity level as low as possible. Moreover, consumption of caffeine was not permitted after the lunch meal (12 p.m.) before each session, and participants had been asked to refrain their spice consumption for two days prior each session. Each sample was evaluated in two different sessions A and B, with the same design but different recordings (FIG. 1A). Each session started at 8:00 a.m. with a 30 minutes rest period and measurement preparation. During all the testing sessions, subjects were seated comfortably. Room temperature was in the 20 to 22° C. range. Subjects were instructed to remain quiet and still, but they were allowed to watch TV. Parameters were recorded 30 minutes before and 90 minutes after ingestion of each sample (FIG. 1A). Treatment. All active TRP agonists were in 200 ml liquid tomato juice ([…]) at room temperature and served with a slice of bread. Placebo was 200 ml Commercial tomato juice. Active ingredients per 200 ml were 1 mg of Capsaicin (Spectrum chemicals), 0.2 ml of Givaudan cooling flavor (QB-113-979-5) or 70 mg of Cinnamaldehyde (Sigma). All ingredients were in vitro validated in cell lines expressing hTRPV1, hTRPA1 or hTRPM8 according to the calcium imaging method described in Riera et al, 2009 (FIG. 2). Energy expenditure was measured using indirect calorimetry. Indirect calorimetry is a measure of respiratory gas exchange (oxygen consumption and carbon dioxide production), which estimates the amount of calories “burned.” This measurement was performed with the MAX-II device (Max II metabolic system, AEI technologies, Naperville, Ill., USA). The equation used by the MAX-II device to evaluate energy expenditure is the simplified Weir formula: REE=(3.941×VO2)+(1.106×VCO2), where: After answering questions from the compliance questionnaire, participants were comfortably installed in semi-recumbent position in a reclining bed, at an angle allowing the participant to ingest the test solution without having to adjust position between metabolic rate measurement periods and treatment ingestion. A canopy was installed over participant's head. Test started 08:30 a.m. following a stabilization period allowing FeCO2 values to reach physiologic range. Substrate oxidation (carbohydrates and fat utilization) and the respiratory quotient (RQ) were calculated using the VO2 and VCO2 values obtained from the MAX-II device during the same timeline than energy expenditure. VO2 and VCO2 values were corrected for protein oxidation. The following equations were used to calculate the amount of fat and carbohydrates oxidized (Dietary Reference Intakes for Energy, Carbohydrate, Fiber, Fat, Fatty Acids, Cholesterol, Protein, and Amino Acids (Macronutrients) (2002/2005) National Academies Press, pp. 633-645): All endpoints have been analyzed using a linear mixed model to take into account the correlation between repeated measures. […]
# [3] = literature (Ludy et al. 2011); cited from earlier work
# [4] = Zone 1, all period post ingestion
# [5] = Zone 2 (nose), all period post ingestion
# [6] = Zone 3, all period post ingestion
# [7] = Zone 4, all period post ingestion
# [8] = Zone 5, all period post ingestion
# [9] = Zone 6, all period post ingestion
# [10] = Zone 7, all period post ingestion
# [11] = Zone 8, all period post ingestion
# [12] = Zone 9, all period post ingestion
# [13] = Zone 10 (chin), all period post ingestion
# [14] = Zone 11, all period post ingestion
# [15] = Zone 12 (cheeks), all period post ingestion
SMILES,"AUC Difference of the temperature vs placebo [1, 4]","AUC Difference of the temperature vs placebo [1, 5]","AUC Difference of the temperature vs placebo [1, 6]","AUC Difference of the temperature vs placebo [1, 7]","AUC Difference of the temperature vs placebo [1, 8]","AUC Difference of the temperature vs placebo [1, 9]","AUC Difference of the temperature vs placebo [1, 10]","AUC Difference of the temperature vs placebo [1, 11]","AUC Difference of the temperature vs placebo [1, 12]","AUC Difference of the temperature vs placebo [1, 13]","AUC Difference of the temperature vs placebo [1, 14]","AUC Difference of the temperature vs placebo [1, 15]",nose temperature after intake [1],energy expenditure compared to placebo [2],fat oxidation compared to placebo [2],"higher post-prandial fat oxidation compared to placebo, magnitude [2]",further results
O=CC=Cc1ccccc1 [cinnamaldehyde],22.396,42.064,30.816,22.118,14.065,21.144,18.856,18.384,18.947,34.072,18.237,26.571,significant increase; also recorded: increase nose temperature,increases energy expenditure,higher level of fat oxidation,~512.7 mg,"chin temperature compared to placebo ([1]; Zone-10 (chin), prolonged time after ingestion, adjusted p-value 0.0486): increases chin temperature; cheek temperature after intake [1]: increases unilaterally cheek temperature; cheek temperature after intake ([1]; listed as Cinnamaldehyde): increased temperature; EC50 (mouse variant of TRPA1): 60 µM; specificity on the human form of the receptor (hTRPA1): confirmed"
COc1cc(CNC(=O)CCCC/C=C/C(C)C)ccc1O [capsaicin],18.584,54.439,16.959,14.893,8.126,13.186,9.255,12.469,26.056,25.26,3.299,22.575,significant increase; also recorded: increase nose temperature,no significant differences,higher level of fat oxidation,about 556.2 mg,efficient doses for increasing energy expenditure and fat oxidation [3]: ≥ 20 mg
